17 compounds from the supplement of paper PMC4862054 can be followed below.

Structures are written as SMILES.

Details in all cases: incubation time: 72 h
One assay deals with MDA-MB-231. The assay can be described thus: drug sensitivity score (DSS), CellTox Green (DSS (AUC-based score)); higher = stronger drug effect (viability inhibition or cytotoxicity); extreme values may be limits of the assay. The method in brief:
(§1)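 Breast cancer cell lines, seeded as 20 µl suspension, were incubated 72 h with compound in 384-well plates at 5 concentrations in 10-fold steps over a 10,000-fold range set for each compound. Fluorescence from CellTox Green was read at 485/520 nm before CellTiter-Glo luminescence, which was read after 10 min at room temperature. Every plate was normalised to 0.1 % DMSO and a positive kill control, and the drug sensitivity score was taken from the area under the fitted dose-response curve.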

In a further assay the test system is Hs578T. The assay is described as above. In short, it runs like this: as §1
The next assay has as its system HCC1937. The description is as above. The method in brief:
as §1

In the next assay the test system is CAL-148. As to the kind of experiment: normalised viability (% of control), CellTiter-Blue; higher = more viable cells (about 100 = DMSO control). How it is done:
(§2)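 DSRT, CellTiter-Blue viability, 72 h incubation. Signal is normalised to DMSO and benzethonium chloride controls. Value is the normalised response at dose 9.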
On the technique in general: The colour change of resazurin is a common sign of viable cells or microbes.

The subject of a further assay is CAL-51. The description is as above. On the procedure:
as §2

The test system of a further assay is CAL-85-1. The description is as above. On the procedure: as §2
Another assay deals with HDQ-P1. The description is as above. How it is done:
as §2

The next assay relates to MDA-MB-453. Described as above. On the procedure:
as §2

A further assay relates to DU-4475. Described as above. How it is done: as §2

As to `COc1cc(Nc2ncc3c(n2)-c2ccc(Cl)cc2C(c2c(F)cccc2OC)=NC3)ccc1C(=O)O` [Alisertib], the drug sensitivity score in the assay with MDA-MB-231 amounted to 8.87; in the assay on Hs578T it was 0; in the assay with HCC1937, 1.76.

On to `CN1CC[C@H](c2c(O)cc(O)c3c(=O)cc(-c4ccccc4Cl)oc23)[C@H](O)C1` [Alvocidib] (10000 nM), for which the normalised viability is 17% with CAL-148; 5.62% in the assay on CAL-51; 2.66% in the assay with CAL-85-1; 16.4% in the assay with HDQ-P1; 10.1% with MDA-MB-453; 1.22% in the assay on DU-4475.

As for `Nc1nc(Cl)nc2c1ncn2[C@H]1C[C@H](O)[C@@H](CO)O1` [Cladribine] (1000 nM), the normalised viability in the assay with CAL-148 amounted to 52.4%; in the assay on CAL-51, 69.8%; in the assay with CAL-85-1, 67.8%; in the assay with HDQ-P1, 104%; with MDA-MB-453, 73.7%; with DU-4475, 40.3%.

For `Nc1ccn([C@@H]2O[C@H](CO)[C@@H](O)[C@@H]2O)c(=O)n1` [Cytarabine] (10000 nM), the normalised viability came to 29.1% with CAL-148; 14.7% in the assay with CAL-51; 68.2% in the assay with CAL-85-1; 87.4% with HDQ-P1; 58.7% in the assay on MDA-MB-453; 22.1% in the assay on DU-4475.

With `Cc1c2oc3c(C)ccc(C(=O)N[C@@H]4C(=O)N[C@H](C(C)C)C(=O)N5CCC[C@H]5C(=O)N(C)CC(=O)N(C)[C@@H](C(C)C)C(=O)O[C@@H]4C)c3nc-2c(C(=O)N[C@@H]2C(=O)N[C@H](C(C)C)C(=O)N3CCC[C@H]3C(=O)N(C)CC(=O)N(C)[C@@H](C(C)C)C(=O)O[C@@H]2C)c(N)c1=O` [Dactinomycin] (1000 nM), the normalised viability with CAL-148 is 12%; with CAL-51, 4.61%; in the assay with CAL-85-1, 2.21%; in the assay with HDQ-P1, 16.8%; in the assay with MDA-MB-453, 5.82%; with DU-4475, -0.64%.

As to `COc1cccc2c1C(=O)c1c(O)c3c(c(O)c1C2=O)C[C@@](O)(C(=O)CO)C[C@@H]3O[C@H]1C[C@H](N)[C@H](O)[C@H](C)O1` [Doxorubicin] (1000 nM), the normalised viability was -1.37% with CAL-148; 3.87% in the assay on CAL-51; 7.31% in the assay with CAL-85-1; 13.7% in the assay on HDQ-P1; 3.55% in the assay with MDA-MB-453; -2.19% in the assay with DU-4475.

`Cc1ccc(F)c(NC(=O)Nc2ccc(-c3cccc4[nH]nc(N)c34)cc2)c1` [Linifanib] (1000 nM): the normalised viability was 80.2% in the assay with CAL-148; 98.1% in the assay on CAL-51; 96.8% in the assay with CAL-85-1; 120% in the assay with HDQ-P1; 111% in the assay on MDA-MB-453; 99.5% in the assay on DU-4475.

As for `CC(=O)O[C@]1(C(C)=O)CC[C@H]2[C@@H]3C=C(C)C4=CC(=O)CC[C@]4(C)[C@H]3CC[C@@]21C` [Megestrol acetate], the drug sensitivity score amounted to 0 with MDA-MB-231, 1.68 with Hs578T and 0 in the assay with HCC1937.

On to `S=c1[nH]cnc2nc[nH]c12` [Mercaptopurine] (10000 nM), for which the normalised viability with CAL-148 worked out at 86.6%; in the assay on CAL-51 it was 75.1%; with CAL-85-1 it was 80.3%; in the assay on HDQ-P1 it was 90.3%; with MDA-MB-453, 100%; with DU-4475 it was 102%.

Consider `Clc1ccc(C(c2ccccc2Cl)C(Cl)Cl)cc1` (centres undefined) [Mitotane] (10000 nM), for which the normalised viability came out at 110% in the assay with CAL-148; 109% with CAL-51; 89.7% in the assay with CAL-85-1; 109% with HDQ-P1; 89.7% in the assay with MDA-MB-453; 97.4% in the assay with DU-4475.

Turning to `CCN1CCN(c2ccc(Nc3cc(N(C)C(=O)Nc4c(Cl)c(OC)cc(OC)c4Cl)ncn3)cc2)CC1` [NVP-BGJ398], the figures for the drug sensitivity score in the assay on MDA-MB-231, with Hs578T and in the assay with HCC1937 were 2.84, 0 and 0, respectively.

As to `COc1cccc2cc(-c3nc([C@H]4CC[C@H](C(=O)O)CC4)n4ncnc(N)c34)[nH]c12` [OSI-027] (10000 nM), the normalised viability amounted to 10.6% in the assay on CAL-148; 14.5% with CAL-51; 25.2% in the assay with CAL-85-1; 20.2% in the assay on HDQ-P1; 12.5% with MDA-MB-453; 30.1% in the assay on DU-4475.

As for `OC[C@H]1O[C@@H](n2cnc3c2N=CNC[C@H]3O)C[C@@H]1O` [Pentostatin] (10000 nM), the normalised viability in the assay on CAL-148 was 124%; in the assay on CAL-51 it was 88.3%; in the assay with CAL-85-1 it was 108%; with HDQ-P1 it was 99.7%; in the assay on MDA-MB-453, 106%; in the assay on DU-4475, 103%.

Take `N#CC[C@H](C1CCCC1)n1cc(-c2ncnc3[nH]ccc23)cn1` [Ruxolitinib] (10000 nM): the normalised viability amounted to 106% with CAL-148; 87.3% in the assay with CAL-51; 115% in the assay on CAL-85-1; 107% with HDQ-P1; 66.1% in the assay with MDA-MB-453; 113% in the assay on DU-4475.

As to `C=CC[C@@H]1/C=C(\C)C[C@H](C)C[C@H](OC)[C@H]2O[C@@](O)(C(=O)C(=O)N3CCCC[C@H]3C(=O)O[C@H](/C(C)=C/[C@@H]3CC[C@@H](O)[C@H](OC)C3)[C@H](C)[C@@H](O)CC1=O)[C@H](C)C[C@@H]2OC` [Tacrolimus] (10000 nM), the normalised viability in the assay with CAL-148 worked out at 115%; in the assay with CAL-51, 95%; with CAL-85-1 it was 100%; in the assay with HDQ-P1, 136%; in the assay with MDA-MB-453, 98.6%; in the assay with DU-4475 it was 107%.

For `C=CCNC1=C2C[C@@H](C)C[C@H](OC)[C@H](O)[C@@H](C)/C=C(\C)[C@H](OC(N)=O)[C@@H](OC)/C=C\C=C(/C)C(=O)NC(=CC1=O)C2=O` [Tanespimycin] (10000 nM), the normalised viability is 9.8% in the assay with CAL-148; 4.68% with CAL-51; 21.8% in the assay with CAL-85-1; 24.8% in the assay on HDQ-P1; 3.61% in the assay with MDA-MB-453; -0.27% with DU-4475.

As to `O=C(c1ccc(C(=O)N2CCC(N3CCCC3)CC2)c(Nc2ccccc2)c1)N1CCC(N2CCCC2)CC1` [UNC1215], the drug sensitivity score with MDA-MB-231 and in the assay on HCC1937 was 0 in each case.
